The test system of one data set is NIH-H358 cell line. As to the kind of experiment: 3D CellTiter-Glo cell viability assay. The format is cell-based. Particulars: 168 h, 7 days' compound treatment, 0.65% methylcellulose. How it is done:
The protocol to perform 3D CellTiter-Glo™ cell viability assay is as follows:
Day −1: Cell Plating • Adjust cell concentrations to 1×10^5 cells/ml with respective medium. (Cell concentration is adjusted according to data base or density optimization assay). Mix 3.5 mL of cell suspension 6.5 mL of 1% methylcellulose. Mix and wait for bubbles to disperse before pipetting. This step yields 10 ml of cell suspension in 0.65% methylcellulose solution. Add 99.5 μL cell suspensions to 96-well plates according to plate map with final cell density. • Two duplicate plates will be set up. One is for day 0 reading (T0) and the other will be cultured in incubator for reading at the end point. • Incubate the plates overnight in humidified incubator at 37° C. with 5% CO2.
Day 0: T0 plate reading and compound treatment • Take T0 plate, add 0.5 μL culture medium to each well for T0 reading. • Add 100 μl CellTiter-Glo® Reagent to each well. • Mix contents for 2 minutes on an orbital shaker to facilitate cell lysis. • Allow the plate to incubate at room temperature for 10 minutes to stabilize luminescent signal. • Record luminescence using EnVision Multi Label Reader. • Dilute the test articles at the concentration indicated at Test Articles Dilution. Add 0.5 μL of each 200× compound working solutions according to plate inoculation map.
Day 7: Plate reading of 7 days' compound treatment • Add 100 μL CellTiter-Glo® Reagent to each well. • Mix contents for 2 minutes on an orbital shaker to facilitate cell lysis. • Allow the plate to incubate at room temperature for 10 minutes to stabilize luminescent signal. • Record luminescence using EnVision Multi Label Reader.

The test system of data set [1] is PANC-1 epithelioid carcinoma of the pancreas cell line bearing KRas^G12D oncogenic mutation. The data set is described as follows: Cell proliferation inhibition (MTS), PANC-1. The format is cell-based. Particulars: Homo sapiens. How it is done: (§1) • Cell line #1: A549. Lung carcinoma cell line bearing KRas^G12S oncogenic mutation • Cell line #2: H358. non-small cell lung cancer line bearing KRas^G12C oncogenic mutation • Cell line #3: PANC-1. epithelioid carcinoma of the pancreas cell line bearing KRas^G12D oncogenic mutation • Cell line #4: RPMI. myeloma cell line bearing KRas^G12A oncogenic mutation
(§2) Cell lines were cultured in DMEM or RPMI-1640 supplemented with FBS 10%. In order to assess the antiproliferative effect of compounds, cells were seeded at a density of 1.8×10^3, 6.2×10^3, 7.8×10^3, 21×10^3 and 2×10^3 cells/cm^2, respectively, in tissue culture microplates and were incubated in humidified atmosphere at 5% CO2. 24 h later, compounds dissolved in DMSO 100% were added for different final concentrations ranging between 0.1 and 50 μM for a final DMSO concentration of 0.5% and the plates were incubated for another 72 h. After incubation, proliferation was quantified using CellTiter 96® Aqueous Non-Radioactive Cell Proliferation Assay-MTS (Promega #G5421) following manufacturer instructions. Amount of 490 nm absorbance is directly proportional to the number of living cells. Absorbance was recorded with a BMG Fluostar Optima Microplate Reader and normalized to control with vehicle.

The subject of data set [2] is RPMI-8226 myeloma cell line bearing KRas^G12A oncogenic mutation. The data set is described as follows: Cell proliferation inhibition (MTS), RPMI-8226. The format is cell-based. The following applies: Homo sapiens. As to the method:
as §1, §2

Data set [3] concerns H358 non-small cell lung cancer line bearing KRas^G12C oncogenic mutation. The data set is described as follows: Cell proliferation inhibition (MTS), H358. Particulars: Homo sapiens, NCI-H358. The format is cell-based. How it is done:
as §1, §2

The subject of data set [4] is A549 lung carcinoma cell line bearing KRas^G12S oncogenic mutation. The data set is described as follows: Cell proliferation inhibition (MTS), A549. It is filed as cell-based. The following applies: Homo sapiens. How it is done: as §1, §2
Another data set has as its target KRas (Homo sapiens, UniProt P01116). The data set is described as follows: Equilibrium dissociation constant by surface plasmon resonance. It is filed as binding. Particulars: SPRi, immobilised KRas, 4° C. How it is done:
Various concentrations of KRas dissolved in water were manually printed onto bare gold-coated (thickness 47 nm) PlexArray Nanocapture Sensor Chips (Plexera Bioscience, Seattle, Wash., US) at 40% humidity. Each concentration was printed in replicate, and each spot contained 0.2 μL of KRas solution. The chip was incubated in 80% humidity at 4° C. for overnight, and rinsed with 10×PBST for 10 min, 1×PBST for 10 min, and deionized water twice for 10 min. The chip was then blocked with 5% (w/v) non-fat milk in water overnight, and washed with 10×PBST for 10 min, 1×PBST for 10 min, and deionized water twice for 10 min before being dried under a stream of nitrogen prior to use. SPRi measurements
were performed with PlexAray HT (Plexera Bioscience, Seattle, Wash., US). Collimated light (660 nm) passes through the coupling prism, reflects off the SPR-active gold surface, and is received by the CCD camera. Buffers and samples were injected by a non-pulsatile piston pump into the 30 μL flowcell that was mounted on the coupling prim. […] The signal changes after binding and washing (in AU) are recorded as the assay value. Selected protein-grafted regions in the SPR images were analyzed, and the average reflectivity variations of the chosen areas were plotted as a function of time. Real-time binding signals were recorded and analyzed by Data Analysis Module (DAM, Plexera Bioscience, Seattle, Wash., US). […]
In general terms: SPR reads the build-up and loss of mass on a sensor chip optically.

Data set [5] concerns NCI-H358 human lung cancer xenograft. The data set is described as follows: Subcutaneous NCI-H358 human lung cancer xenograft model in NOD/SCID mice. The format is in vivo. Particulars: for Tolerability / safety in tumor bearing mice: 10 mg/kg b.i.d. i.p.; for Mean tumor volume: PG-D22 (Day 22 after first dosing), Compound 18 10 mg/kg Bid x 22 day, cisplatin 3.5 mg/kg BIW x 3.5 week, vehicle 630 mm^3; for Mean tumor volume / Tumor growth inhibition (TGI) / Number of mice (of 6) whose body weight loss (BWL) reached 10%: i.p.; for Tumor growth inhibition (TGI) / Anti-tumor effect compared with vehicle group: PG-D22; for Tumor growth inhibition (TGI): TGI=100x(1-T/C), Compound 18 10 mg/kg Bid; for Tumor growth inhibition (TGI) / Number of mice (of 6) whose body weight loss (BWL) reached 10%: cisplatin 3.5 mg/kg BIW; for Anti-tumor effect compared with vehicle group: group-2 p=0.026, group-3 p=0.019; for Number of mice (of 6) whose body weight loss (BWL) reached 10%: tumor bearing mice, compound 18 10 mg/kg Bid. The text has this:
Evaluation of the Efficacy of compound 18 in the Treatment of Subcutaneous NCI-H358 Human Lung Cancer Xenograft Model in NOD/SCID Mice
The treatments were started when the mean tumor size reached 141 mm^3. The test article administration and the animal numbers in each study group are shown in the following experimental design table.
Tumor growth inhibition (TGI): TGI (%) is an indication of antitumor effectiveness, and expressed as: TGI (%)=100×(1−T/C). T and C were the mean tumor volume of the treated and control groups, respectively, on a given day.
A general note: Xenograft models place foreign cells or tissue in a host animal.

The mark [6] stands for this setting: 72 h incubation, MTS, compounds 1-53, median from experimental results.
The mark [7] stands for this setting: compounds 54-63, based on estimations and/or preliminary experimental results.

Data on twelve molecules can be found in patent US11466012B2, “Tetrahydroisoquinoline compounds” (ALLINKY BIOPHARMA, priority 2018, dated 2022).

KRas, sequence (P01116 1-188 isoform P01116-2): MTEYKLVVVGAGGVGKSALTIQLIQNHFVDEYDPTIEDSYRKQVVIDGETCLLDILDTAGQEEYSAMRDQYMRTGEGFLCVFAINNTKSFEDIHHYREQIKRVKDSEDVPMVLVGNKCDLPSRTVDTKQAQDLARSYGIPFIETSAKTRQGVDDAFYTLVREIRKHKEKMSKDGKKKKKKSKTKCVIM

On to `Cc1ccc(C2c3cc(OCCc4cccnc4)c(C)cc3CCN2C(=O)NCc2cocn2)c(C)c1` (centres unmarked) [Compound 42], for which the IC50 was found to be 10100 nM with NIH-H358 cell line; 620 nM in data set [1] (setting [6]); 320 nM in data set [2] (setting [6]); 1210 nM in data set [3] (setting [6]); 490 nM in data set [4] (setting [6]).
For `COc1cc2c(cc1OCCc1cccc(O)c1)C(c1ccc(C)cc1C)N(C(=O)NCc1cocn1)CC2` (centres unmarked) [Compound 18, 1-(2,4-dimethylphenyl)-7-(3-hydroxyphenethoxy)-6-methoxy-N-(oxazol-4-ylmethyl)-3,4-dihydroisoquinoline-2(1H)-carboxamide], the half-maximal inhibitory concentration (IC50) with NIH-H358 cell line was 370 nM; in data set [1] (setting [6]), 1590 nM; in data set [2] (setting [6]), 1210 nM; in data set [3] (setting [6]), 1660 nM; in data set [4] (setting [6]) it was 1970 nM. On KRas, this molecule had a Kd of 8.8 nM. Also, on KRas (read-out: Kd (dissociation rate constant)), the koff was determined as 0.00103 s⁻¹. Further, the “Tolerability / safety in tumor bearing mice” value in data set [5] is on record as “tolerate”; in data set [5] (listed as compound 18) it was “safe”. Also, in data set [5], the Mean tumor volume was determined as 238 mm^3. In data set [5], the “Tumor growth inhibition (TGI)” value is given as “about 62%”. The figures for the “Anti-tumor effect compared with vehicle group” value in data set [5] and in data set [5] (listed as compound 18) were “significant anti-tumor effects” and “significant anti-tumor activities”, respectively. In data set [5], the “Number of mice (of 6) whose body weight loss (BWL) reached 10%” value is reported as “one”.
Take `N.N.[Cl][Pt][Cl]` [Cisplatin, reference compound]: in data set [5], the Mean tumor volume amounted to 231 mm^3, the “Tumor growth inhibition (TGI)” value is on record as “about 63%”, the “Anti-tumor effect compared with vehicle group” value is given as “significant anti-tumor effects” and the “Number of mice (of 6) whose body weight loss (BWL) reached 10%” value was determined as 4.
Consider `CCNC(=O)N1CCc2cc(OC)c(OCCc3cccnc3)cc2C1c1ccc(C)cc1C` (centres unmarked) [Compound 46], for which the half-inhibitory concentration (IC50) was 842 nM with NIH-H358 cell line; 700 nM in data set [1] (setting [6]); 500 nM in data set [2] (setting [6]); 700 nM in data set [3] (setting [6]); 600 nM in data set [4] (setting [6]).
As to `CCNC(=O)N1CCc2cc(OC)c(OCCc3cnccn3)cc2C1c1ccc(C)cc1C` (centres unmarked) [Compound 51], the IC50 in the data set on NIH-H358 cell line came out at 334 nM; in data set [1] (setting [6]) it was 500 nM; in data set [2] (setting [6]), 600 nM; in data set [3] (setting [6]), 600 nM; in data set [4] (setting [6]), 500 nM.
With `CCNC(=O)N1CCc2cc(OC)c(OCCc3cccc(N)c3)cc2C1c1ccc(C)cc1C` (centres unmarked) [Compound 50], the IC50 came out at 373 nM in the data set with NIH-H358 cell line; 500 nM in data set [1] (setting [6]); 800 nM in data set [2] (setting [6]); 800 nM in data set [3] (setting [6]); 800 nM in data set [4] (setting [6]).
Turning to `CCNC(=O)N1CCc2cc(OC)c(OCCc3cccc(O)c3)cc2C1c1ccc(C)cc1C` (centres unmarked) [Compound 17], the IC50 turned out to be 620 nM with NIH-H358 cell line; 1830 nM in data set [1] (setting [6]); 1740 nM in data set [2] (setting [6]); 3100 nM in data set [3] (setting [6]); 3520 nM in data set [4] (setting [6]).
For `Cc1ccc(C2c3cc(OCCc4cccc(F)c4)c(O)cc3CCN2C(=O)NCc2cocn2)c(C)c1` (centres unmarked) [Compound 26], the concentration for half-maximal inhibition (IC50) turned out to be 9350 nM in the data set with NIH-H358 cell line; 1150 nM in data set [1] (setting [6]); 790 nM in data set [2] (setting [6]); 1010 nM in data set [3] (setting [6]); 2020 nM in data set [4] (setting [6]).
As for `COc1cc2c(cc1OCCc1cccnc1)C(c1ccc(C)cc1C)N(C(=O)NCc1cocn1)CC2` (centres unmarked) [Compound 23], the concentration for half-maximal inhibition (IC50) came out at 390 nM in the data set with NIH-H358 cell line; 490 nM in data set [1] (setting [6]); 620 nM in data set [2] (setting [6]); 590 nM in data set [3] (setting [6]); 550 nM in data set [4] (setting [6]).
Consider `COc1cc2c(cc1OCCc1ccccc1)C(c1ccc(C)cc1C)N(C(=O)NCc1cocn1)CC2` (centres unmarked) [Compound 22], for which the IC50 in data set [1] (setting [6]) is 600 nM; in data set [2] (setting [6]), 820 nM; in data set [3] (setting [6]), 650 nM; in data set [4] (setting [6]), 890 nM.
For `CC(=O)Nc1cc2c(cc1OCCc1cccnc1)C(c1ccc(C)cc1C)N(C(=O)NCc1cocn1)CC2` (centres unmarked) [Compound 37], the IC50 in data set [1] (setting [6]) turned out to be 740 nM; in data set [2] (setting [6]) it was 1210 nM; in data set [3] (setting [6]), 710 nM; in data set [4] (setting [6]) it was 810 nM.
As for `COc1cc2c(cc1OCCc1cccnc1OC)C(c1ccc(C)cc1C)N(C(=O)NCc1cocn1)CC2` (centres unmarked) [Compound 56], the 50% inhibitory concentration (IC50) is 500 nM in data set [1] (setting [7]), 600 nM in data set [2] (setting [7]), 600 nM in data set [3] (setting [7]) and 600 nM in data set [4] (setting [7]).

In general, IC50 refers to the point on the concentration scale where inhibition reaches its midpoint. What is called Kd is the free concentration of one partner at which half of the binding sites on the other are occupied at equilibrium, for simple one-to-one binding. A high value points to lower affinity.
